Results on 17 compounds are retold here after patent US12492174B2, “Morpholine-3-carboxamide derivatives as prostaglandin E2 receptor 4 (EP4) agonists for the treatment of gastrointestinal and pulmonary diseases” (NXERA PHARMA UK LIMITED, priority 2022, dated 2025).

Molecules are shown by their SMILES. Bounds are passed on as bounds.

Series [1] addresses T1, human EP4 (Homo sapiens, UniProt P35408).
T1 construct: expressed in transfected cells; host or cells: HEK293 cells transduced with EP4 BacMam virus
The series is described as follows: cAMP Gs functional assay (HTRF cAMP dynamic-2). The format is cell-based. The note with it: for Emax: HEK293, HEK293 cells transfected with EP4 Bacmam virus; for EC50: 30 mins at 37° C., −Log of the molarity (M), read-out: cAMP human EP4 pEC50 (converted). As for the experimental part:
Cloning, Baculovirus generation, large scale infection of HEK293 cells and membrane preparation: Human prostaglandin E2 receptor 4 (EP4) was cloned into pBacMam expression vector (GeneScript, UK). Transposition of EP4 DNA was performed using Invitrogen's Bac-to-Bac Baculovirus Expression Systems. P0 baculovirus was generated by transfecting SF9 Cells with bacmid DNA using Cellfectin II transfection reagent (ThermoFisher Scientific, UK). Following P0 generation P1 virus was then generated ready for large scale infection and membrane preparation. HEK293 cells were grown in DMEM (ThermoFisher Scientific, UK), supplemented with 10% heat inactivated fetal bovine serum (FBS). Cells were infected at a seeding density of 3.5 million cells/mL in 500 cm^3 flasks at 5% v/v EP4 Bacman. Expression was carried out over a 36 hr period at 37° C. with 5% CO2. The cells were removed using PBS and a cell scrapper. The cell culture was centrifuged at 2500 RPM for 10 mins at 4° C. The supernatant was then poured off and the pellet stored at −80° C. The pellet was defrosted and re-suspended in 15 mL of homogenising buffer (20 mM HEPES, 10 mM EDTA, pH 7.4). Then homogenised in mechanical homogeniser (VMR) for 10 seconds. The membrane was centrifuged in centrifuge tubes at 40,000 g for 15 mins at 4° C. The supernatant was poured away and re-suspended in 15 mL of homogenising buffer. Homogenised for 20 seconds. The membrane was centrifuged at 40,000 g for 45 mins at 4° C. The membrane was re-suspended in 3 mL of storage buffer (20 mM HEPES, 0.1 mM EDTA, pH 7.4) mixing well. The resulting membranes were then stored at −80° C.
cAMP Gs Functional Assay: cAMP production following EP4 receptor activation was determined using the Homogeneous Time-Resolved Fluorescence (HTRF) cAMP dynamic-2 assay (Cisbio, France). HEK293 cells were transfected using a 0.5% EP4 Bacmam virus for 36 hours, before dissociating the cells, and freezing at −150° C.
On the day of testing, increasing concentration of test compounds, alongside positive controls (10 uM PGE2 (Tocris, Abingdon, UK)) and negative control (DMSO (Sigma-Aldrich, UK) were added to a ProxiPlate-384 Plus, White 384-shallow well Mircoplate, (PerkinElmer, USA) using the ECHO dispense.
Cells were defrosted in a water bath and resuspended in DMEM supplemented with 10% FBS before centrifuging at 1200 RPM for 5 mins to form a pellet. The pellet was resuspended in assay buffer (DMEM+0.5 mM IBMX (Tocris, Abingdon, UK)) to 0.5×10^6 cells/mL. Cell suspension, for a final assay concentration of 5000 cell/well was added using the multidrop to the pre-dispensed assay plate. The plate was then incubated at 37° C. for 30 mins, with 5% CO2. The cAMP production was determined as manufacturer's instructions, before plates were read on a PheraStar fluorescence plate reader (BMG LabTech, Germany).
The pEC50 values (−Log of the molarity (M) in mol/liter) were calculated from the mid-point of the curve using dotmatics as shown in Table 3.
For orientation: In TR-FRET formats the signal depends on donor and acceptor labels being close together.

Series [2] in a line: Unidirectional Caco-2 cell permeability assay. The format is in vitro ADME. The note with it: human, n=2, apical pH 6.5, basolateral pH 7.4, 1 hour, 37° C. As for the experimental part: Caco-2 cells (ECACC) were seeded onto 24-well Transwell plates at 2×10^5 cells per well and used in confluent monolayers after a 21 day culture at 37° C. under 5% CO2. Test compounds were incubated at 10 μM, 0.2% DMSO final, n=2 in assay buffer (Hanks balanced salt solution supplemented with 25 mM HEPES, adjusted to pH 6.5). Hanks balanced salt solution supplemented with 25 mM HEPES, adjusted to pH 7.4 (0.2% DMSO final) was used for the basolateral chamber (as receiver).
Incubations were performed at 37° C., with samples removed from both donor and acceptor chambers at T=0 and 1 hour and compound analysed by mass spectrometry (LC-MS/MS) including an analytical internal standard (0.5 μM carbamazepine).
Apparent permeability (Papp) values are shown in Table 4 and were determined from the relationship:
Where V is the volume of each Transwell compartment (apical 125 μL, basolateral 600 μL), and concentrations are the relative MS responses for compound (normalized to internal standard) in the donor chamber before incubation and acceptor chamber at the end of the incubation Area=area of cells exposed for drug transfer (0.33 cm^2).
Lucifer Yellow (LY) was added to the apical buffer in all wells to assess viability of the cell layer. As LY cannot freely permeate lipophilic barriers, a high degree of LY transport indicates poor integrity of the cell layer and wells with a LY Papp>10×10^−6 cm/s were rejected.
Compound recovery from the wells was determined from MS responses (normalized to internal standard) in donor and acceptor chambers at the end of incubation compared to response in the donor chamber pre-incubation.
(In general: Caco-2 monolayers are a common model of the intestinal barrier.)

Setting [3] is: HEK293 cells transfected with EP4 Bacmam virus.

T1 sequence (P35408 whole entry): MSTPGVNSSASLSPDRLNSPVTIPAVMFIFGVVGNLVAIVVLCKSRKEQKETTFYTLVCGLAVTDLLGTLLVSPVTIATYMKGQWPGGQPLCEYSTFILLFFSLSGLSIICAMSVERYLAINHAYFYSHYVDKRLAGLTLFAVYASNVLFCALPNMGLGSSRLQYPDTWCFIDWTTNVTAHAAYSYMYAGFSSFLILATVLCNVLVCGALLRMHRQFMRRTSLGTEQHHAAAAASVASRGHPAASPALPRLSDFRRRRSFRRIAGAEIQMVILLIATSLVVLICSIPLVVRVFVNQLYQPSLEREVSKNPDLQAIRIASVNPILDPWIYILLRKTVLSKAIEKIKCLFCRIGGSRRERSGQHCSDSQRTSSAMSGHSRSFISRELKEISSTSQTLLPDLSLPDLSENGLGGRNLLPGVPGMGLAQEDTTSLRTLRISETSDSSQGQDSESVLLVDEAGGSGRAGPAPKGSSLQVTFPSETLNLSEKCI

As for `C[C@H](NC(=O)[C@H]1COCCN1Cc1ccc(O)c(-c2ccc(C(N)=O)cc2)c1)c1ccc(C(=O)O)cc1` [Example 23, 4-[(1S)-1-[[(3R)-4-[[3-(4-carbamoylphenyl)-4-hydroxy-phenyl]methyl]morpholine-3-carbonyl]amino]ethyl]benzoic acid], the Emax (in general, the greatest response seen or fitted, relative to the assay's reference) in series [1] (positive control 10 uM PGE2) came out at 93%. For the same compound, in series [1] (setting [3]), the EC50 is 1e-08 M. Besides, the apical-to-basolateral permeability (Papp A→B) (as a rule, how fast a substance crosses the layer from the apical side) at 1 h, 10 μM in series [2] turned out to be 0.48 ×10⁻⁶ cm/s.
Turning to `Cc1cc(C(N)=O)ccc1-c1cc(CN2CCOC[C@@H]2C(=O)N[C@@H](C)c2ccc(C(=O)O)cc2)ccn1` [Example 3, 4-[(1S)-1-[[(3R)-4-[[2-(4-carbamoyl-2-methyl-phenyl)-4-pyridyl]methyl]morpholine-3-carbonyl]amino]ethyl]benzoic acid], the Emax in series [1] (positive control 10 uM PGE2) is 96%. Also, the EC50 in series [1] (setting [3]) was 6.31e-08 M. For the same compound, the Papp A→B at 1 h, 10 μM in series [2] is 0.57 ×10⁻⁶ cm/s.
In turn, `C[C@H](NC(=O)[C@H]1COCCN1Cc1cccc(-c2ccc(C(N)=O)cc2O)c1)c1ccc(C(=O)O)cc1` [Example 14, 4-((S)-1-((R)-4-((4′-carbamoyl-2′-hydroxy-[1,1′-biphenyl]-3-yl)methyl)morpholine-3-carboxamido)ethyl)benzoic acid] yielded a maximal response (Emax) in series [1] (positive control 10 uM PGE2) of 95%. In addition, the EC50 in series [1] (setting [3]) is 7.94e-08 M. Also, the apparent permeability from apical to basolateral (Papp A→B) at 1 h, 10 μM in series [2] is 0.15 ×10⁻⁶ cm/s.
In the same order, the values of `Cc1cc(S(N)(=O)=O)ccc1-c1cccc(CN2CCOC[C@@H]2C(=O)N[C@@H](C)c2ccc(C(=O)O)cc2)c1` [Example 5, 4-((S)-1-((R)-4-((2′-methyl-4′-sulfamoyl-[1,1′-biphenyl]-3-yl)methyl)morpholine-3-carboxamido)ethyl)benzoic acid] are 100%, 7.94e-10 M and 0.59 ×10⁻⁶ cm/s.
On the same counts, the results for `Cc1cc(C(N)=O)ccc1-c1cc(O)cc(CN2CCOC[C@@H]2C(=O)N[C@H](C)c2ccc(C(=O)O)cc2)c1` [Example 39, 4-((R)-1-((R)-4-((4′-carbamoyl-5-hydroxy-2′-methyl-[1,1′-biphenyl]-3-yl)methyl)morpholine-3-carboxamido)ethyl)benzoic acid] are 99%, 7.94e-11 M and 0.35 ×10⁻⁶ cm/s.
In the same order, the values of `NC(=O)c1ccc(-c2cc(CN3CCOC[C@@H]3C(=O)NC3(c4ccc(C(=O)O)cc4)CC3)ccc2O)cc1` [Example 34, (R)-4-(1-(4-((4′-carbamoyl-6-hydroxy-[1,1′-biphenyl]-3-yl)methyl)morpholine-3-carboxamido)cyclopropyl)benzoic acid] are 97%, 3.98e-10 M and 0.39 ×10⁻⁶ cm/s.
Consider `Cc1cc(C(N)=O)ccc1-c1cc(O)cc(CN2CCOC[C@H]2C(=O)N[C@H](C)c2ccc(C(=O)O)cc2)c1` [Example 38, 4-((R)-1-((S)-4-((4′-carbamoyl-5-hydroxy-2′-methyl-[1,1′-biphenyl]-3-yl)methyl)morpholine-3-carboxamido)ethyl)benzoic acid], for which, in series [1] (positive control 10 uM PGE2), the maximal effect (Emax) came out at 94%. The EC50 in series [1] (setting [3]) is 2e-08 M. In addition, the apparent permeability from apical to basolateral (Papp A→B) at 1 h, 10 μM in series [2] was less than 0.1 ×10⁻⁶ cm/s.
Compound `Cc1cc(C(N)=O)ccc1-c1cccc(CN2CCOC[C@@H]2C(=O)N[C@@H](C)c2ccc(C(=O)O)cc2)n1` [Example 2, 4-[(1S)-1-[[(3R)-4-[[6-(4-carbamoyl-2-methyl-phenyl)-2-pyridyl]methyl]-morpholine-3-carbonyl]amino]ethyl]benzoic acid] displayed a maximal effect (Emax) in series [1] (positive control 10 uM PGE2) of 89%. Besides, the EC50 in series [1] (setting [3]) is 1e-06 M.
`Cc1cc(S(N)(=O)=O)ccc1-c1cc(O)cc(CN2CCOC[C@@H]2C(=O)N[C@@H](C)c2ccc(C(=O)O)c(O)c2)c1` [Example 22, 2-hydroxy-4-((S)-1-((R)-4-((5-hydroxy-2′-methyl-4′-sulfamoyl-[1,1′-biphenyl]-3-yl)methyl)morpholine-3-carboxamido)ethyl)benzoic acid] registered an Emax in series [1] (positive control 10 uM PGE2) of 99%. Further, the EC50 in series [1] (setting [3]) is 2.51e-10 M. The compound further showed an apical-to-basolateral permeability (Papp A→B) at 1 h, 10 μM in series [2] of less than 0.2 ×10⁻⁶ cm/s.
In series [1] (positive control 10 uM PGE2), `Cc1cc(S(N)(=O)=O)ccc1-c1cncc(CN2CCOC[C@@H]2C(=O)N[C@@H](C)c2ccc(C(=O)O)cc2)c1` [Example 12, 4-[(1S)-1-[[(3R)-4-[[5-(2-methyl-4-sulfamoyl-phenyl)-3-pyridyl]methyl]morpholine-3-carbonyl]amino]ethyl]benzoic acid] returned a maximal effect (Emax) of 99%. Besides, in series [1] (setting [3]), the EC50 is 1.58e-08 M. The apical-to-basolateral permeability (Papp A→B) at 1 h, 10 μM in series [2] is 0.12 ×10⁻⁶ cm/s.
In the same order, the values of `Cc1cc(C(N)=O)ccc1-c1ccnc(CN2CCOC[C@@H]2C(=O)N[C@@H](C)c2ccc(C(=O)O)cc2)c1` [Example 4, 4-[(1S)-1-[[(3R)-4-[[4-(4-carbamoyl-2-methyl-phenyl)-2-pyridyl]methyl]morpholine-3-carbonyl]amino]ethyl]benzoic acid] are 95%, 6.31e-08 M and 0.5 ×10⁻⁶ cm/s.
In the same order, the values of `Cc1cc(C(N)=O)ccc1-c1cccc(CN2CCOC[C@@H]2C(=O)NCc2ccc(C(=O)O)nc2)c1` [Example 9, 5-[[[(3R)-4-[[3-(4-carbamoyl-2-methyl-phenyl)phenyl]methyl]morpholine-3-carbonyl]amino]methyl]pyridine-2-carboxylic acid] are 97%, 3.98e-08 M and 0.24 ×10⁻⁶ cm/s.
`Cc1cc(C(N)=O)ccc1-c1cc(CN2CCOC[C@@H]2C(=O)N[C@@H](C)c2ccc(C(=O)O)cc2)c[n+]([O-])c1` [Example 30, 3-(4-carbamoyl-2-methylphenyl)-5-(((R)-3-(((S)-1-(4-carboxyphenyl)ethyl)carbamoyl)morpholino)methyl)pyridine 1-oxide] showed a maximal effect (Emax) in series [1] (positive control 10 uM PGE2) of 93%. Further, the EC50 in series [1] (setting [3]) is 1.58e-07 M.
For the compound `Cc1cc(C(N)=O)ccc1-c1cccc(CN2CCOC[C@@H]2C(=O)NC(C)c2cc(F)c(C(=O)O)c(F)c2)c1` (single isomer, unassigned) [Example 27], in series [1] (setting [3]), the EC50 was 2.51e-07 M. In series [1] (HEK293 cells transfected with EP4 Bacmam virus, positive control 10 uM PGE2), the cAMP human EP4 Emax was 95%.
On to `C[C@H](NC(=O)[C@H]1COCCN1Cc1cccc(-c2ccc(S(N)(=O)=O)cc2O)c1)c1ccc(C(=O)O)cc1` [Example 29, 4-((S)-1-((R)-4-((2′-hydroxy-4′-sulfamoyl-[1,1′-biphenyl]-3-yl)methyl)morpholine-3-carboxamido)ethyl)benzoic acid], for which, in series [1] (positive control 10 uM PGE2), the Emax worked out at 97%.
Take `Cc1cc(C(N)=O)ccc1-c1cccc(CN2CCOC[C@@H]2C(=O)NC(C)c2cc(F)c(C(=O)O)c(F)c2)c1` (single isomer, unassigned) [Example 26]: in series [1] (positive control 10 uM PGE2), the Emax turned out to be 97%.
For `Cc1cc(OS(N)(=O)=O)ccc1-c1cccc(CN2CCOC[C@@H]2C(=O)N[C@@H](C)c2ccc(C(=O)O)cc2)c1` [Example 20, 4-((S)-1-((R)-4-((2′-methyl-4′-(sulfamoyloxy)-[1,1′-biphenyl]-3-yl)methyl)morpholine-3-carboxamido)ethyl)benzoic acid], the Emax in series [1] (positive control 10 uM PGE2) was determined as 101%. Also, the EC50 in series [1] (setting [3]) is 5.01e-10 M.
